{"source": "paper PMC8041284", "about": "“Tunable Methacrylamides for Covalent Ligand Directed Release Chemistry” (Journal of the American Chemical Society, 2021)"}
{"molecular_target": "BTK (Homo sapiens, UniProt Q06187)", "sequence (Q06187 402-655 limits assumed)": "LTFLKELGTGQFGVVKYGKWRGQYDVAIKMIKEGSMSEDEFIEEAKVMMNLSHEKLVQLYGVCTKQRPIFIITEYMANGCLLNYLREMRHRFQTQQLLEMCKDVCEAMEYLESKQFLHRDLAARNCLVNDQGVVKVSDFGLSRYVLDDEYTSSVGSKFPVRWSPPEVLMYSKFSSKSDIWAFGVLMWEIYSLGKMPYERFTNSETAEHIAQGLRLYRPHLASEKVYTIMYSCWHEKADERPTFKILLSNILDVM", "assay": "biochemical", "details": "read-out: BTK inhibition (%), 0.75 uM BTK, […] probe 3l, 15 min preincubation", "units": {"inhibition at 10 µM": "%"}}
{"smiles": "Cc1ccccc1C(C(=O)NC1CCCCC1)N(C(=O)Cn1ccnc1C)c1cccc(F)c1", "note": "(stereo not shown) [PCM-0215210]", "inhibition at 10 µM": -6.9}
{"smiles": "C[C@]12CCC(=O)C=C1CC[C@@H]1[C@@H]2[C@@H](O)C[C@@]2(C)[C@H]1CC[C@]2(O)C(=O)CO", "note": "[PCM-0214647]", "inhibition at 10 µM": 12.4}
{"smiles": "COc1cc(Nc2nc3ccccc3nc2NS(=O)(=O)c2ccc(NC(=O)c3ccc(C)c(OC)c3)cc2)cc(OC)c1", "note": "[PCM-0095193]", "inhibition at 10 µM": -17.9}
{"smiles": "Cc1sc2c(c1C)C(c1ccc(Cl)cc1)=N[C@@H](CC(N)=O)c1nnc(C)n1-2", "note": "[PCM-0215329]", "inhibition at 10 µM": -14.7}
{"smiles": "CC[C@H]1CN2CC[C@]3(C(=O)Nc4ccccc43)[C@@H]2C[C@@H]1/C(=C\\OC)C(=O)OC", "note": "[PCM-0216305]", "inhibition at 10 µM": 3.9}
{"smiles": "Cc1ccc(-c2n[nH]c3c2C(c2cccc(O)c2)N(c2ccc(C(=O)O)cc2)C3=O)cc1", "note": "(stereo not shown) [PCM-0216247]", "inhibition at 10 µM": 41.7}
{"smiles": "COc1ccc2c(c1)/C(=C/c1cnc[nH]1)C(=O)N2", "note": "[PCM-0101915]", "inhibition at 10 µM": 47.6}
{"smiles": "CNNCc1ccc(C(=O)NC(C)C)cc1", "note": "[PCM-0086325]", "inhibition at 10 µM": -17.9}
{"smiles": "COC(=O)CCC(=O)CN", "note": "[PCM-0216554]", "inhibition at 10 µM": -7.7}
{"smiles": "CC1=CC(=O)NS(=O)(=O)O1", "note": "[PCM-0090549]", "inhibition at 10 µM": -14}
{"smiles": "O=C(Nc1ccc([N+](=O)[O-])cc1O)Nc1ccccc1Br", "note": "[PCM-0215392]", "inhibition at 10 µM": 73.1}
{"smiles": "CC(C)=CCc1cc2c(cc1O)oc(=O)c1c3ccc(O)cc3oc21", "note": "[PCM-0216176]", "inhibition at 10 µM": 17.2}
{"smiles": "O=C1CCC[C@@H]2[C@H]3CCCN4CCC[C@H](CN12)[C@@H]34", "note": "[PCM-0215044]", "inhibition at 10 µM": -16.3}
{"smiles": "CC(c1cc2ccccc2s1)N(O)C(N)=O", "note": "(stereo not shown) [PCM-0086421]", "inhibition at 10 µM": -0.7}
{"smiles": "C[C@]12CC[C@H](O)CC1=CC[C@@H]1[C@@H]2CC[C@]2(C)C(=O)CC[C@@H]12", "note": "[PCM-0214686]", "inhibition at 10 µM": -24.9}
{"smiles": "CN(C)CC/C=C1/c2ccccc2Sc2ccc(Cl)cc21", "note": "[PCM-0095101]", "inhibition at 10 µM": 10.9}
{"smiles": "Cc1noc(C)c1-c1ccc(-c2cc(C(N)=O)c(NC(N)=O)s2)c(O[C@H]2CCNC2)c1", "note": "[PCM-0215541]", "inhibition at 10 µM": 74.1}
{"smiles": "COc1cc(O)cc2c1C(=O)C[C@@H](c1ccccc1)O2", "note": "[PCM-0214998]", "inhibition at 10 µM": -12.5}
{"smiles": "FC(F)(F)Oc1ccc2nc(-c3ccc(OCCOCCOc4ccc(-c5nc6ccc(OC(F)(F)F)cc6[nH]5)nc4)cn3)[nH]c2c1", "note": "[PCM-0215500]", "inhibition at 10 µM": 32.4}
{"smiles": "CC1(O)CC(c2nc(-c3ccc4ccc(-c5ccccc5)nc4c3)c3c(N)nccn23)C1", "note": "(stereo not shown) [PCM-0214568]", "inhibition at 10 µM": 33.1}
{"smiles": "O=C(O)Cc1ccc2c(c1)C(=O)c1ccccc1CO2", "note": "[PCM-0216047]", "inhibition at 10 µM": -5.5}
{"smiles": "NC12CC3CC(CC(C3)C1)C2", "note": "[PCM-0064405]", "inhibition at 10 µM": -14.8}
{"smiles": "COc1cc2c(NC3CCN(C(C)C)CC3)nc(C3CCCCC3)nc2cc1OCCCN1CCCC1", "note": "[PCM-0215758]", "inhibition at 10 µM": -10.8}
{"smiles": "COc1ccc(-c2cc(=O)c3c(O)c(OC)c(O)c(OC)c3o2)cc1", "note": "[PCM-0214999]", "inhibition at 10 µM": 80.7}
{"smiles": "COc1ccc2cc1Oc1ccc(cc1)C[C@H]1c3c(cc4c(c3Oc3cc5c(cc3OC)CCN(C)[C@@H]5C2)OCO4)CCN1C", "note": "[PCM-0214760]", "inhibition at 10 µM": 30.4}
{"smiles": "CCCOC(=O)c1ccc(O)cc1", "note": "[PCM-0216242]", "inhibition at 10 µM": -6.2}
{"smiles": "Cc1ccc2nc(CN(CCN(Cc3nc4ccc(C)cc4[nH]3)Cc3nc4ccc(C)cc4[nH]3)Cc3nc4ccc(C)cc4[nH]3)[nH]c2c1", "note": "[PCM-0215616]", "inhibition at 10 µM": 95.8}
{"smiles": "Cc1nc(Nc2ncc(C(=O)Nc3cc(NC(=O)c4cccc(C(F)(F)F)c4)ccc3C)s2)cc(N2CCN(CCO)CC2)n1", "note": "[PCM-0216225]", "inhibition at 10 µM": 47.9}
{"smiles": "CN(C)C(=O)c1cc2cnc(Nc3ccc(N4CCNCC4)cn3)nc2n1C1CCCC1", "note": "[PCM-0215283]", "inhibition at 10 µM": -7.7}
{"smiles": "Cc1cc(O)c(-c2ccc([C@@H](C)CN(C)C)cc2)c2c1[nH]c(=O)c1sccc12", "note": "[PCM-0215805]", "inhibition at 10 µM": 38.6}
{"smiles": "COc1cc([C@@H]2c3cc4c(cc3[C@@H](O[C@@H]3O[C@@H]5CO[C@@H](C)O[C@H]5[C@H](O)[C@H]3O)[C@H]3COC(=O)[C@H]23)OCO4)cc(OC)c1O", "note": "[PCM-0086140]", "inhibition at 10 µM": -2.8}
